Laboratory results as given in patent US20130303509A1, “NAMPT INHIBITORS” (AbbVie Inc., priority 2012, published 2013).

System: PC3 cells
Assay: NAMPT Cell Proliferation Assay
Format: cell-based
Conditions: Homo sapiens, PC-3, 120 h, 5 days incubation, cell viability by Cell Titer Glo
Outline: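 Seeded at 500 cells/well in RPMI with 10% heat-inactivated FBS and left to attach overnight at 37° C, 5% CO2. Compounds were added as 10-fold dilutions […] for 5 days, then viability was read by CellTiter-Glo. IC50s came from sigmoidal fits of percent inhibition.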

SMILES	IC50
O=C(Nc1ccc(OC2CCN(C(=O)C3CCOC3)CC2)cc1)C1CN(c2ccnnc2)C1 (stereo not shown) [Example 298, 1-(pyridazin-4-yl)-N-(4-{[1-(tetrahydrofuran-3-ylcarbonyl)piperidin-4-yl]oxy}phenyl)azetidine-3-carboxamide]	97.9 nM
CO[C@H](C(=O)N1CCC(c2ccc(NC(=O)C3CN(c4cccnn4)C3)cc2)CC1)c1ccccc1 [Example 420, N-(4-{1-[(2S)-2-methoxy-2-phenylacetyl]piperidin-4-yl}phenyl)-1-(pyridazin-3-yl)azetidine-3-carboxamide]	2.35 nM
C=CCCC(=O)N1CCC(c2ccc(NC(=O)C3CN(c4cccnn4)C3)cc2)CC1 [Example 331, N-{4-[1-(pent-4-enoyl)piperidin-4-yl]phenyl}-1-(pyridazin-3-yl)azetidine-3-carboxamide]	2.09 nM
O=C(Nc1ccc(OC2CCN(C(=O)c3cscn3)CC2)cc1)C1CN(c2cccnn2)C1 [Example 218, 1-(pyridazin-3-yl)-N-(4-{[1-(1,3-thiazol-4-ylcarbonyl)piperidin-4-yl]oxy}phenyl)azetidine-3-carboxamide]	8.86 nM
CC(C)(C)CC(=O)N1CC(Oc2ccc(NC(=O)C3CN(c4ccnnc4)C3)cc2)C1 [Example 254, N-(4-{[1-(3,3-dimethylbutanoyl)azetidin-3-yl]oxy}phenyl)-1-(pyridazin-4-yl)azetidine-3-carboxamide]	12 nM
O=C(Nc1ccc(OC2CCN(C(=O)c3ccccc3Cl)CC2)cc1)C1CN(c2ccnnc2)C1 [Example 279, N-(4-{[1-(2-chlorobenzoyl)piperidin-4-yl]oxy}phenyl)-1-(pyridazin-4-yl)azetidine-3-carboxamide]	9.72 nM
O=C(Nc1ccc(C2CCN(C(=O)C3CCOCC3)CC2)cc1)C1CN(c2ccnnc2)C1 [Example 146, 1-(pyridazin-4-yl)-N-{4-[1-(tetrahydro-2H-pyran-4-ylcarbonyl)piperidin-4-yl]phenyl}azetidine-3-carboxamide]	70.7 nM
O=C(Nc1ccc(OC2CCN(C(=O)Cc3ccc(OC(F)(F)F)cc3)CC2)cc1)C1CN(c2ccnnc2)C1 [Example 275, 1-(pyridazin-4-yl)-N-{4-[(1-{[4-(trifluoromethoxy)phenyl]acetyl}piperidin-4-yl)oxy]phenyl}azetidine-3-carboxamide]	683 nM
O=C(Nc1ccc(OC2CCN(C(=O)c3ccccc3F)CC2)cc1)C1CN(c2ccnnc2)C1 [Example 289, N-(4-{[1-(2-fluorobenzoyl)piperidin-4-yl]oxy}phenyl)-1-(pyridazin-4-yl)azetidine-3-carboxamide]	53.2 nM
CCC(C)CC(=O)N1CCC(Oc2ccc(NC(=O)C3CN(c4cccnc4)C3)cc2)CC1 (stereo not shown) [Example 38, N-(4-{[1-(3-methylpentanoyl)piperidin-4-yl]oxy}phenyl)-1-(pyridin-3-yl)azetidine-3-carboxamide]	6.39 nM
Cc1ncccc1N1CC(C(=O)Nc2ccc(C3CCN(C(=O)C4CCCCC4)CC3)cc2)C1 [Example 196, N-{4-[1-(cyclohexylcarbonyl)piperidin-4-yl]phenyl}-1-(2-methylpyridin-3-yl)azetidine-3-carboxamide]	111 nM
O=C(Nc1ccc(OC2CCN(C(=O)Cc3ccc(F)cc3)CC2)cc1)C1CN(c2ccnnc2)C1 [Example 276, N-[4-({1-[(4-fluorophenyl)acetyl]piperidin-4-yl}oxy)phenyl]-1-(pyridazin-4-yl)azetidine-3-carboxamide]	130 nM
O=C(NCC(=O)N1CCC(c2ccc(NC(=O)C3CN(c4cccnn4)C3)cc2)CC1)c1ccco1 [Example 408, N-(4-{1-[N-(furan-2-ylcarbonyl)glycyl]piperidin-4-yl}phenyl)-1-(pyridazin-3-yl)azetidine-3-carboxamide]	29.9 nM
O=C(Nc1ccc(C2CCN(C(=O)c3ccc(F)cc3F)CC2)cc1)C1CN(c2cccnn2)C1 [Example 391, N-{4-[1-(2,4-difluorobenzoyl)piperidin-4-yl]phenyl}-1-(pyridazin-3-yl)azetidine-3-carboxamide]	5.99 nM
O=C(Nc1ccc(C2CCN(C(=O)C(c3ccccc3)c3ccccc3)CC2)cc1)C1CN(c2cccnn2)C1 [Example 386, N-{4-[1-(diphenylacetyl)piperidin-4-yl]phenyl}-1-(pyridazin-3-yl)azetidine-3-carboxamide]	3.18 nM
O=C(Nc1ccc(OC2CCN(C(=O)c3cccc(Cl)c3)CC2)cc1)C1CN(c2cccnn2)C1 [Example 250, N-(4-{[1-(3-chlorobenzoyl)piperidin-4-yl]oxy}phenyl)-1-(pyridazin-3-yl)azetidine-3-carboxamide]	9.11 nM
O=C(Nc1ccc(C2CCN(C(=O)CC3CC3)CC2)cc1)C1CN(c2cccnn2)C1 [Example 427, N-{4-[1-(cyclopropylacetyl)piperidin-4-yl]phenyl}-1-(pyridazin-3-yl)azetidine-3-carboxamide]	2.03 nM
O=C(Nc1ccc(C2CCN(C(=O)Cc3cc(F)cc(F)c3)CC2)cc1)C1CN(c2cccnn2)C1 [Example 384, N-(4-{1-[(3,5-difluorophenyl)acetyl]piperidin-4-yl}phenyl)-1-(pyridazin-3-yl)azetidine-3-carboxamide]	8.27 nM

Other lines, results leading:

IC50	SMILES
6.09 nM	CCCCCC(=O)N1CCC(c2ccc(NC(=O)[C@H]3CCN(c4cccnn4)C3)cc2)CC1 [Example 678, (3S)-N-[4-(1-hexanoylpiperidin-4-yl)phenyl]-1-(pyridazin-3-yl)pyrrolidine-3-carboxamide]
8.07 nM	CC(C)(C(=O)N1CC[C@@H](Oc2ccc(NC(=O)C3CN(c4ccnnc4)C3)cc2)C1)c1ccccc1 [Example 466, N-(4-{[(3R)-1-(2-methyl-2-phenylpropanoyl)pyrrolidin-3-yl]oxy}phenyl)-1-(pyridazin-4-yl)azetidine-3-carboxamide]
769 nM	Cc1ccc(N2CC[C@H](C(=O)Nc3ccc(OC4CCN(C(=O)c5ccccc5)CC4)cc3)C2)nn1 [Example 837, (3S)—N-{4-[(1-benzoylpiperidin-4-yl)oxy]phenyl}-1-(6-methylpyridazin-3-yl)pyrrolidine-3-carboxamide]
105 nM	O=C(Nc1ccc(O[C@@H]2CCN(C(=O)c3cccc(C(F)(F)F)c3)C2)cc1)C1CN(c2ccnnc2)C1 [Example 453, 1-(pyridazin-4-yl)-N-[4-({(3R)-1-[3-(trifluoromethyl)benzoyl]pyrrolidin-3-yl}oxy)phenyl]azetidine-3-carboxamide]
6.35 nM	O=C(Nc1ccc(O[C@@H]2CCN(C(=O)CC3CC3)C2)cc1)C1CN(c2cccnn2)C1 [Example 485, N-(4-{[(3R)-1-(cyclopropylacetyl)pyrrolidin-3-yl]oxy}phenyl)-1-(pyridazin-3-yl)azetidine-3-carboxamide]
267 nM	O=C(Nc1ccc(S(=O)(=O)C2CCN(C(=O)Cc3ccc(F)cc3)CC2)cc1)C1CN(c2cccnn2)C1 [Example 579, N-[4-({1-[(4-fluorophenyl)acetyl]piperidin-4-yl}sulfonyl)phenyl]-1-(pyridazin-3-yl)azetidine-3-carboxamide]
0.6 nM	Cc1ccsc1C(=O)N1CCC(c2ccc(NC(=O)[C@H]3CCN(c4cccnn4)C3)cc2)CC1 [Example 679, (3S)-N-(4-{1-[(3-methylthiophen-2-yl)carbonyl]piperidin-4-yl}phenyl)-1-(pyridazin-3-yl)pyrrolidine-3-carboxamide]
11.7 nM	O=C(Nc1ccc(OC2CCN(C(=O)C3CCCCC3)CC2)cc1)[C@H]1CCN(c2cccnn2)C1 [Example 796, (3S)—N-(4-{[1-(cyclohexylcarbonyl)piperidin-4-yl]oxy}phenyl)-1-(pyridazin-3-yl)pyrrolidine-3-carboxamide]
8.09 nM	CC(C)CC(=O)N1CCC(c2ccc(NC(=O)[C@H]3CCN(c4cccnn4)C3)cc2)CC1 [Example 736, (3S)-N-{4-[1-(3-methylbutanoyl)piperidin-4-yl]phenyl}-1-(pyridazin-3-yl)pyrrolidine-3-carboxamide]
29.4 nM	O=C(Nc1ccc(C2CCN(C(=O)c3ccccc3)CC2)cc1)C1CN(c2ccc(F)nn2)C1 [Example 818, N-[4-(1-benzoylpiperidin-4-yl)phenyl]-1-(6-fluoropyridazin-3-yl)azetidine-3-carboxamide]
1.11 nM	O=C(Nc1ccc(C2CCN(C(=O)c3ccco3)CC2)cc1)[C@H]1CCN(c2cccnn2)C1 [Example 649, (3S)-N-{4-[1-(furan-2-ylcarbonyl)piperidin-4-yl]phenyl}-1-(pyridazin-3-yl)pyrrolidine-3-carboxamide]
8.95 nM	CO[C@H](C(=O)N1CCC(c2ccc(NC(=O)[C@H]3CCN(c4cccnn4)C3)cc2)CC1)c1ccccc1 [Example 633, (3S)-N-(4-{1-[(2S)-2-methoxy-2-phenylacetyl]piperidin-4-yl}phenyl)-1-(pyridazin-3-yl)pyrrolidine-3-carboxamide]
29.9 nM	O=C(Nc1ccc(C2CCN(C(=O)C3CCOC3)CC2)cc1)[C@H]1CCN(c2cccnn2)C1 (stereo partly drawn) [Example 638, (3S)-1-(pyridazin-3-yl)-N-{4-[1-(tetrahydrofuran-3-ylcarbonyl)piperidin-4-yl]phenyl}pyrrolidine-3-carboxamide]
4.72 nM	O=C(Nc1ccc(O[C@@H]2CCN(C(=O)CC(F)(F)F)C2)cc1)C1CN(c2cccnn2)C1 [Example 521, 1-(pyridazin-3-yl)-N-(4-{[(3R)-1-(3,3,3-trifluoropropanoyl)pyrrolidin-3-yl]oxy}phenyl)azetidine-3-carboxamide]
12.4 nM	Cc1ccc(N2CC(C(=O)Nc3ccc(C4CCN(C(=O)C(C)(C)C)CC4)cc3)C2)nn1 [Example 852, N-{4-[1-(2,2-dimethylpropanoyl)piperidin-4-yl]phenyl}-1-(6-methylpyridazin-3-yl)azetidine-3-carboxamide]
2.4 nM	CC(C)(C)OC(=O)N1CCC(F)(c2ccc(NC(=O)C3CN(c4cccnn4)C3)cc2)CC1 [Example 809, tert-butyl 4-fluoro-4-[4-({[1-(pyridazin-3-yl)azetidin-3-yl]carbonyl}amino)phenyl]piperidine-1-carboxylate]
